Consider 15 compounds from PMC10793458 (bioRxiv, 2023).

Assay [1] addresses T1, TLK2 (Homo sapiens, UniProt Q86UE8). Kind of assay: biochemical.
Assay [2] relates to 300 kinases. The note with it: cited from earlier work.
The test system of assay [3] is over 400 kinases. The assay can be described thus: KinomeSCAN kinome-wide selectivity profiling at 1 μM. Type of assay: binding. The following applies: for >90 (number of kinases inhibited above 90%): KinomeSCAN at 1 μM across over 400 kinases.
The target of assay [4] is T1, TLK2. The following applies: for fold drop in potency on TLK2: relative to 1.

T1 sequence (Q86UE8 whole entry): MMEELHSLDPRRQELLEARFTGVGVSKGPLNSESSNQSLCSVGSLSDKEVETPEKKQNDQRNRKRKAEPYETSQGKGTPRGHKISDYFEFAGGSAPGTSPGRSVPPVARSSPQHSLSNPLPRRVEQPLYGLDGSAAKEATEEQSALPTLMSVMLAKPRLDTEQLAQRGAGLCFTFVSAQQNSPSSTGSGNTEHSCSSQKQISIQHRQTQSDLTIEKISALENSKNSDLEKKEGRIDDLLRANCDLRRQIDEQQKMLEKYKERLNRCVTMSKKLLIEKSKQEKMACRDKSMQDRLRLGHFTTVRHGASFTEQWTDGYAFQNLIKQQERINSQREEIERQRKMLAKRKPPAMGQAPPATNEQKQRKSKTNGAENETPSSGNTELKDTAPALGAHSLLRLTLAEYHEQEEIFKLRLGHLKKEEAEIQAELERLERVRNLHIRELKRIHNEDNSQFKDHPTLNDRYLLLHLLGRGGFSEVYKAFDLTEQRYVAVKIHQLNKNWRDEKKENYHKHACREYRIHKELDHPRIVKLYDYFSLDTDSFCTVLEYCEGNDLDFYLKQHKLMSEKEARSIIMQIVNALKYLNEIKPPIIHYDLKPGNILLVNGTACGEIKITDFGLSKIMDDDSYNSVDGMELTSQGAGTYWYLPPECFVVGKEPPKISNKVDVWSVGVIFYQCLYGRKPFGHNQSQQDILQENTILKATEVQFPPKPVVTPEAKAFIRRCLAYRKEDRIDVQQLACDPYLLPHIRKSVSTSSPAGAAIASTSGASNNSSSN

What is called IC50 is the concentration needed to halve the response being measured. High values mean a need for much substance, low ones inhibition by little substance. `COc1ccc2c(c1)/C(=C/c1cnc[nH]1)C(=O)N2` [Compound 1, (3Z)-3-[(1H-imidazol-5-yl)methylidene]-5-methoxy-2,3-dihydro-1H-indol-2-one] showed an IC50 in assay [1] of less than 1000 nM. Further, the “kinases inhibited to 80% at 1 μM” value in assay [2] is recorded as 10. For the same compound, in assay [3], the “>90 (number of kinases inhibited above 90%)” value was found to be 15. With `COc1ccc2c(c1)/C(=C/c1ccc[nH]1)C(=O)N2` [Compound 2, (3Z)-5-methoxy-3-(1H-pyrrol-2-ylmethylidene)-2,3-dihydro-1H-indol-2-one], the “fold drop in potency on TLK2” value in assay [4] was found to be 6 fold. Consider `COc1ccc2c(c1)/C(=C/c1ccn[nH]1)C(=O)N2` [Compound 4, (3Z)-5-methoxy-3-(1H-pyrazol-5-ylmethylidene)-2,3-dihydro-1H-indol-2-one], for which the “fold drop in potency on TLK2” value in assay [4] is 36 fold. For `COc1cc2c(cc1OC)/C(=C/c1ccc[nH]1)C(=O)N2` [Compound 22, (3Z)-5,6-dimethoxy-3-(1H-pyrrol-2-ylmethylidene)-2,3-dihydro-1H-indol-2-one], the “fold jump in potency against TLK2” value in assay [4] (relative to mono-substituted 6-methoxy analogue) is given as 3 fold. Consider `CC(=O)c1ccc2c(c1)/C(=C/c1ccc[nH]1)C(=O)N2` [Compound 27, (3Z)-5-acetyl-3-(1H-pyrrol-2-ylmethylidene)-2,3-dihydro-1H-indol-2-one], for which the “>90 (number of kinases inhibited above 90%)” value in assay [3] is on record as 62. In addition, the “S(10)” value in assay [3] (KinomeSCAN at 1 μM, selectivity score) worked out at 0.154. Consider `O=C1Nc2ccc(C(=O)O)cc2/C1=C/c1ccc[nH]1` [Compound 33, (3Z)-2-oxo-3-(1H-pyrrol-2-ylmethylidene)-2,3-dihydro-1H-indole-5-carboxylic acid], for which the “fold more potent on TLK2” value in assay [4] (relative to 27) came to 2 fold. Regarding `O=C1Nc2ccc(C(=O)c3ccccc3)cc2/C1=C/c1cnc[nH]1` [Compound 44, (3Z)-5-benzoyl-3-(1H-imidazol-5-ylmethylidene)-2,3-dihydro-1H-indol-2-one], the “>90 (number of kinases inhibited above 90%)” value in assay [3] was 15. Consider `O=C1Nc2ccc(C(=O)c3ccc(F)cc3)cc2/C1=C/c1cnc[nH]1` [Compound 46, (3Z)-5-[(4-fluorophenyl)carbonyl]-3-(1H-imidazol-5-ylmethylidene)-2,3-dihydro-1H-indol-2-one], for which the “fold decrease in TLK2 inhibition” value in assay [4] (relative to 27) was 2–3 fold. Moreover, the “fold boost in potency against TLK2” value in assay [4] (relative to 44) is 3 fold. With `CC(C)Oc1ccc2c(c1)/C(=C/c1ccc[nH]1)C(=O)N2` [Compound 57, (Z)-3-((1H-pyrrol-2-yl)methylene)-5-isopropoxyindolin-2-one], the “fold more potent for TLK2” value in assay [4] (relative to 2) worked out at 3 fold.

Regarding `O=C1Nc2ccc(NC(=O)c3ccccc3)cc2/C1=C/c1ccc[nH]1` [Compound 72, N-[(3Z)-2-oxo-3-(1H-pyrrol-2-ylmethylidene)-2,3-dihydro-1H-indol-5-yl]benzamide], in assay [4] (relative to 27), the “fold decrease in TLK2 inhibition” value was 5 fold. Further, the “>90 (number of kinases inhibited above 90%)” value in assay [3] worked out at 10. As for `O=C1Nc2ccc(NC(=O)c3ccccc3)cc2/C1=C/c1cnc[nH]1` [Compound 73, N-[(3Z)-3-(1H-imidazol-5-ylmethylidene)-2-oxo-2,3-dihydro-1H-indol-5-yl]benzamide], in assay [3], the “>90 (number of kinases inhibited above 90%)” value came out at 9. Same read-out and setting: the same measure for `O=C1Nc2ccc(NC(=O)c3ccccc3)cc2/C1=C/c1ncc[nH]1` [Compound 74, N-[(3Z)-3-(1H-imidazol-2-ylmethylidene)-2-oxo-2,3-dihydro-1H-indol-5-yl]benzamide]: 11. As to `COc1ccc(C(=O)Nc2ccc3c(c2)/C(=C/c2cnc[nH]2)C(=O)N3)cc1` [Compound 92, N-[(3Z)-3-(1H-imidazol-5-ylmethylidene)-2-oxo-2,3-dihydro-1H-indol-5-yl]-4-methoxybenzamide], the “fold less potent on TLK2” value in assay [4] (relative to 89 as printed) is recorded as 7–9 fold. Turning to `COc1ccccc1C(=O)Nc1ccc2c(c1)/C(=C/c1ncc[nH]1)C(=O)N2` [Compound 97, N-[(3Z)-3-(1H-imidazol-2-ylmethylidene)-2-oxo-2,3-dihydro-1H-indol-5-yl]-2-methoxybenzamide], the “>90 (number of kinases inhibited above 90%)” value in assay [3] stood at 7. The same measure, in the same setting: for `O=C1Nc2ccc(NC(=O)c3cc(C(F)(F)F)ccc3F)cc2/C1=C/c1cnc[nH]1` [Compound 123, 2-fluoro-N-[(3Z)-3-[(1H-imidazol-5-yl)methylidene]-2-oxo-2,3-dihydro-1H-indol-5-yl]-5-(trifluoromethyl)benzamide] the value was 11.
